From PMC7076571 (Neoplasia (New York, N.Y.), 2020)

Key:
Type in all cases: biochemical
RBX1 = RBX1 (Homo sapiens, UniProt P62877+Q13616, Q13616:L421E/Q13616:V451E/Q13616:V452K/Q13616:Y455K); assay: in vitro CUL1 neddylation assay
SAG = molecular target: T1, SAG (Homo sapiens, UniProt Q93034+Q9UBF6, Q93034:L407E/Q93034:L439K/Q93034:V440K); assay: in vitro CUL5 neddylation assay
T1 sequence (Q9UBF6 2-113): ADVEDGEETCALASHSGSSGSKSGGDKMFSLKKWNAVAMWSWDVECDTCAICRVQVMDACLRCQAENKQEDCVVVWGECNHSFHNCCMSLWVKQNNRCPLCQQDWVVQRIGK
T1 sequence (Q93034 401-780 L407E/L439K/V440K): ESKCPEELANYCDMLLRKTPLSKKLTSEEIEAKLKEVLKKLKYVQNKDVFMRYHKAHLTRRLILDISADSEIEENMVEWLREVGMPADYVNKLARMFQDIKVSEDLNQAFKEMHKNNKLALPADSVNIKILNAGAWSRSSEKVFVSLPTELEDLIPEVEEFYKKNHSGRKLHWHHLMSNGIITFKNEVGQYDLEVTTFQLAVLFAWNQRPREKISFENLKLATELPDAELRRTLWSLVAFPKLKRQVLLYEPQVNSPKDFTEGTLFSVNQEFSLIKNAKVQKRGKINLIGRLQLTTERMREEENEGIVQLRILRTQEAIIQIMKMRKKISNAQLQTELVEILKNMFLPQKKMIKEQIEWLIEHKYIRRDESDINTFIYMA

CUL5 = molecular target: T2, CUL5 (Homo sapiens, UniProt Q93034+Q9UBF6, Q93034:L407E/Q93034:L439K/Q93034:V440K); assay: in vitro CUL5 neddylation assay
T2 sequence (Q93034 401-780 L407E/L439K/V440K): T1 sequence (Q93034 401-780 L407E/L439K/V440K)
T2 sequence (Q9UBF6 2-113): T1 sequence (Q9UBF6 2-113)

RBX1, sequence (Q13616 411-776 L421E/V451E/V452K/Y455K): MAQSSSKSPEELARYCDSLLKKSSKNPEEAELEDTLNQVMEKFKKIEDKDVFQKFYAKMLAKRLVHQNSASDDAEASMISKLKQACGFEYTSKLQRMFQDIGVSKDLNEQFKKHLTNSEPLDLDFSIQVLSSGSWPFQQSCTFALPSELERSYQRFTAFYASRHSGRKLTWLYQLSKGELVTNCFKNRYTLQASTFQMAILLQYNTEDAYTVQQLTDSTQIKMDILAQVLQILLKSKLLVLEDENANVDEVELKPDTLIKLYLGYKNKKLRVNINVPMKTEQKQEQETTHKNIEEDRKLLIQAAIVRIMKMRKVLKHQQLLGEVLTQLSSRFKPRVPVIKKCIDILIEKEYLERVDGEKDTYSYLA
RBX1, sequence (P62877 whole entry): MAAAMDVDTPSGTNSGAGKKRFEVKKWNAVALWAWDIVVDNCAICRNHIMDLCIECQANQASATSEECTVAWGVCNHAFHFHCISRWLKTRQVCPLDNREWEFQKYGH

For Cc1cc2c(C(C)C)c(O)c(O)c(C=O)c2c(O)c1-c1c(C)cc2c(C(C)C)c(O)c(O)c(C=O)c2c1O [gossypol], which IC50 (RBX1) is on record?
The IC50 was 3.4 µM.

What about the IC50 (SAG) of the same compound?
Its IC50 is 4.25 µM.

What about the IC50 (CUL5) of the same compound?
The IC50 was 4.25 µM.
